Measurements taken from patent publication US11618746B2, “Inhibitors of APOL1 and methods of using same” (Vertex Pharmaceuticals Incorporated, priority 2018, dated 2023).

Biological target: T1, G1 APOL1 (Homo sapiens, UniProt O14791, I384M/S342G)
T1 construct: expressed in transfected cells
T1 sequence (O14791 28-398 S342G/I384M): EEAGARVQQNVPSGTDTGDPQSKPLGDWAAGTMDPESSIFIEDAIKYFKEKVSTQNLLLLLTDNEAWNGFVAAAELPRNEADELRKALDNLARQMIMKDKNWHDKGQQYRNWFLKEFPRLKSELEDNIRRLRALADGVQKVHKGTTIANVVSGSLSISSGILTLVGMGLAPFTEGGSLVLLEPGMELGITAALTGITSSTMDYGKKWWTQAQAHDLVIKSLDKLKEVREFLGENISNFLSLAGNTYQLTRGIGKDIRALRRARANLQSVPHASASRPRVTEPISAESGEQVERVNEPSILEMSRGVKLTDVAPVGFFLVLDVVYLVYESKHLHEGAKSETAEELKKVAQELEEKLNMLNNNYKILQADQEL
Test: Acute APOL1 Thallium Assay with inducible stable clones of HEK 293 cells
Type: cell-based
Settings: HEK T-Rex tetracycline-inducible cells expressing G1 APOL1 (clone G1 DC3.25); inhibition of thallium flux rate
How it was run: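 HEK293 T-Rex cells with tetracycline-inducible G1 APOL1 (clone DC3.25), 26000 cells per well, induced with tetracycline at plating and incubated at 37° C, 5% CO2. Pore activity read on FLIPR as Tl+ influx via fluorescence of AM-ester-loaded thallium-sensitive dye.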

Compound | IC50 [nM]
N#Cc1cc(F)c2[nH]c(-c3ccc(F)cc3)c(CCC(=O)N[C@H]3CCNC3=O)c2c1 [Compound 28] | > 1000
O=C(CCc1c(-c2ccc(OC(F)F)cc2)[nH]c2c(F)cc(F)cc12)N[C@@H]1C(=O)NC[C@H]1O [Compound 102] | < 250
O=C(CCc1c(-c2ccc(F)cc2)[nH]c2ccc(OCc3ccccc3)cc12)N[C@H]1CCNC1=O [Compound 54, 3-[5-benzyloxy-2-(4-fluorophenyl)-1H-indol-3-yl]-N-[(3S)-2-oxopyrrolidin-3-yl]propanamide] | 250 to 1000
O=C1C[C@@H](NC(=O)CCc2c(-c3ccc(F)cc3)[nH]c3c(F)cc(F)cc23)C(=O)N1 [Compound 16] | 250 to 1000
O=C(CCc1c(-c2cc(F)cc(F)c2)[nH]c2ccccc12)N[C@@H]1C(=O)NC[C@H]1O [Compound 127, 3-[2-(3,5-difluorophenyl)-1H-indol-3-yl]-N-[(3S,4R)-4-hydroxy-2-oxo-pyrrolidin-3-yl]propanamide] | 250 to 1000
O=C(CCc1c(-c2cc(F)cc(F)c2)[nH]c2c(F)cc(F)cc12)N[C@@H]1C(=O)NC[C@H]1O [Compound 104] | < 250
O=C(CCc1c(-c2ccc(F)c(F)c2)[nH]c2ccccc12)N[C@@H]1C(=O)NC[C@H]1O [Compound 129, 3-[2-(3,4-difluorophenyl)-1H-indol-3-yl]-N-[(3S,4R)-4-hydroxy-2-oxo-pyrrolidin-3-yl]propanamide] | < 250
O=C(CCc1c(-c2ccccc2)[nH]c2cc(F)cc(F)c12)N[C@@H]1C(=O)NC[C@H]1O [Compound 85] | < 250
O=C(CCc1c(-c2ccc(F)cc2)[nH]c2c(F)cccc12)N[C@H]1CCNC1=O [Compound 75] | < 250
O=C1C[C@H](NC(=O)CCc2c(-c3ccc(F)cc3)[nH]c3c(F)cc(F)cc23)C(=O)N1 [Compound 5] | 250 to 1000
O=C(CCc1c(-c2ccc(F)cc2)[nH]c2ccc(F)cc12)N[C@@H]1CCNC1=O [Compound 49] | 250 to 1000
O=C(CCc1c(-c2ccccc2)[nH]c2cc(F)ccc12)N[C@@H]1C(=O)NC[C@H]1O [Compound 109, 3-(6-fluoro-2-phenyl-1H-indol-3-yl)-N-[(3S,4R)-4-hydroxy-2-oxo-pyrrolidin-3-yl]propanamide] | < 250
CC1C[C@H](NC(=O)CCc2c(-c3ccc(F)cc3)[nH]c3c(F)cc(F)cc23)C(=O)N1 (mixture of isomers) [Compound 6] | 250 to 1000
CN(C(=O)CCc1c(-c2ccc(F)cc2)[nH]c2ccc(F)cc12)C1CCNC1=O (centres unmarked) [Compound 50] | 250 to 1000
O=C(CCc1c(-c2ccc(F)cc2)[nH]c2c(F)cc(Br)cc12)N[C@H]1CCNC1=O [Compound 27] | < 250
O=C(CCc1c(-c2ccc(F)cc2)[nH]c2c(F)cccc12)N[C@@H]1C(=O)NC[C@H]1O [Compound 76] | < 250

Compound | IC50 [nM]
O=C(CCc1c(-c2ccc(F)cc2)[nH]c2ccc(C(F)(F)F)cc12)N[C@@H]1C(=O)NC[C@H]1O [Compound 108, 3-[2-(4-fluorophenyl)-5-(trifluoromethyl)-1H-indol-3-yl]-N-[(3S,4R)-4-hydroxy-2-oxo-pyrrolidin-3-yl]propanamide] | < 250
O=C(CCc1c(-c2ccc(F)cc2)[nH]c2ccc(F)cc12)N[C@@H]1C(=O)NC[C@H]1O [Compound 46] | < 250
O=C(CCc1c(-c2ccc(OC(F)F)cc2)[nH]c2c(F)cc(F)cc12)N[C@H]1CCNC1=O [Compound 21] | < 250
O=C(CCc1c(-c2ccccc2)[nH]c2c(Br)cccc12)N[C@@H]1C(=O)NC[C@H]1O [Compound 70] | < 250
O=C(CCc1c(-c2ccc(F)cc2)[nH]c2c(F)cc(F)cc12)N[C@H]1CCNC1=O [Compound 3, 3-[5,7-difluoro-2-(4-fluorophenyl)-1H-indol-3-yl]-N-[(3S)-2-oxopyrrolidin-3-yl]propanamide] | < 250
O=C(CCc1c(-c2cccc(F)c2)[nH]c2c(F)cc(F)cc12)N[C@@H]1C(=O)NC[C@H]1O [Compound 103] | < 250
O=C(CCc1c(-c2ccc(F)cc2)[nH]c2c(Cl)cc(F)cc12)N[C@@H]1C(=O)NC[C@H]1O [Compound 36] | < 250
O=C(CCc1c(-c2ccc(F)c(F)c2)[nH]c2c(F)cc(F)cc12)N[C@@H]1C(=O)NC[C@H]1O [Compound 105] | < 250
O=C(CCc1c(-c2ccccc2)[nH]c2ccc(F)cc12)N[C@@H]1C(=O)NC[C@H]1O [Compound 51] | < 250
O=C(CCc1c(-c2ccc(F)cc2)[nH]c2c(F)cc(F)cc12)N[C@H]1C[C@H](CO)NC1=O [Compound 8] | > 1000
COc1cc(F)cc2c(CCC(=O)N[C@@H]3C(=O)NC[C@H]3O)c(-c3ccc(F)cc3)[nH]c12 [Compound 40] | < 250
Cc1ccc(-c2[nH]c3ccccc3c2CCC(=O)N[C@@H]2C(=O)NC[C@H]2O)cc1F [Compound 126] | < 250
Cc1ccc2[nH]c(-c3ccc(Br)cc3)c(CCC(=O)N[C@H]3CCNC3=O)c2c1 [Compound 43, 3-[2-(4-bromophenyl)-5-methyl-1H-indol-3-yl]-N-[(3S)-2-oxopyrrolidin-3-yl]propanamide] | < 250
O=C(CCc1c(-c2ccc(F)cc2)[nH]c2c(F)cc(C(F)(F)F)cc12)N[C@@H]1C(=O)NC[C@H]1O [Compound 101, 3-[7-fluoro-2-(4-fluorophenyl)-5-(trifluoromethyl)-1H-indol-3-yl]-N-[(3S,4R)-4-hydroxy-2-oxo-pyrrolidin-3-yl]propanamide] | < 250
Cc1c(F)c(F)cc2c(CCC(=O)N[C@@H]3C(=O)NC[C@H]3O)c(-c3ccccc3)[nH]c12 [Compound 99, 3-(5,6-difluoro-7-methyl-2-phenyl-1H-indol-3-yl)-N-[(3S,4R)-4-hydroxy-2-oxo-pyrrolidin-3-yl]propanamide] | < 250
O=C(CCc1c(-c2ccc(F)cc2)[nH]c2ccccc12)N[C@@H]1C(=O)NC[C@H]1O [Compound 87, 3-[2-(4-fluorophenyl)-1H-indol-3-yl]-N-[(3S,4R)-4-hydroxy-2-oxo-pyrrolidin-3-yl]propanamide] | < 250
